Source: publication PMC8964227, “IP-Se-06, a Selenylated Imidazo[1,2-a]pyridine, Modulates Intracellular Redox State and Causes Akt/mTOR/HIF-1α and MAPK Signaling Inhibition, Promoting Antiproliferative Effect and Apoptosis in Glioblastoma Cells” (Oxidative Medicine and Cellular Longevity, 2022)

How the values were obtained:
[1] = tested on: A172 cells; assay: MTT cytotoxicity assay, A172; assay type: cell-based, human; details: for IC50: Homo sapiens, A 172, 72 h, MTT; for Selectivity Index (SI): IC50 in normal cell line (HT-22)/IC50 in A172
Experimental: (§1) Cell viability after treatments with selenylated imidazo[1,2-a]pyridines (IP-Se-01–IP-Se-10) was analyzed by quantitative colorimetric assay with MTT, according to Mosmann. IP-01, a prototype molecule without the addition of the selenium in its structure, was also tested. A172 and HT-22 cells were cultured in 96-well plates (10^4 cells/well). After confluence, cells were exposed to selenylated imidazo[1,2-a]pyridines (0.1, 1, 10, 100, and 1000 μM) for up to 72 h. After this phase, cell medium was removed and the cells were washed twice with PBS and incubated with MTT solution (0.5 mg/mL) for 2 h. The insoluble formazan was dissolved by adding DMSO (100 μL/well), and colorimetric determination of MTT reduction was measured at 550 nm in a multireader Infinite M200 Tecan. Three independent experiments were conducted, and the results are presented as IC50 (half maximal inhibitory concentration).

[2] = tested on: HT-22 cells; assay: MTT cytotoxicity assay, HT-22; assay type: cell-based, mouse; details: 72 h; for IC50: Mus musculus, HT-22, MTT
Experimental: as §1

[3] = tested on: A172 cells; assay: Chromatin condensation detection (DAPI); assay type: cell-based, human; details: 1 μM, 72 h
Experimental: DAPI was used to analyze changes in the nuclear morphology of apoptotic cells after DNA damage. A172 cells (0.5 × 10^4/well) in 24-well plates were treated with IP-Se-06 (1 μM) for 72 h. The cells were then fixed with 4% paraformaldehyde for 10 min at 4°C. The fixed cells were washed three times with PBS (pH 7.4) and stained with DAPI (3 μg/mL) in PBS at 37°C for 10 min. Finally, the cells were washed in PBS, and nuclear morphology was photographed by a fluorescence Olympus IX83 microscope.

[4] = tested on: γ-H2AX; assay: Western blotting γ-H2AX, A172 cells; assay type: cell-based, human; details: 1 μM, vs control
Experimental: (§2) After treatment with IP-Se-06 (1 μM) for 48 h, A172 cells were harvested with a lysis buffer. The lysates were collected, and the total proteins present in the lysates were quantified according to Lowry. Proteins present in the cell lysates (30 μg) were subjected to SDS-polyacrylamide gel electrophoresis, followed by electroblotting to polyvinylidene fluoride (PVDF) membranes. Nonspecific binding was blocked by incubating the membrane with skimmed milk in TBS buffer containing 0.1% Tween 20 (TBS-T) for 1 h. After primary antibody incubation, membranes were incubated with appropriate HRP-conjugated secondary antibodies for 1 h at room temperature. Immunodetection was performed using an enhanced chemiluminescence (ECL) detection kit. Protein bands were visualized using ChemiDoc MP Imaging System (Bio-Rad) and quantified by densitometry using the freeware ImageJ by Wayne Rasband from the National Institute of Health (USA).

[5] = tested on: A172 cells; assay: Mitochondrial membrane potential (TMRE); assay type: cell-based, human; details: 1 μM, 6 h, vs control
Experimental: The loss of mitochondrial transmembrane potential was analyzed using the fluorescent probe TMRE according to as proposed by O'Reilly and collaborators, with modifications. A172 cells (4 × 10^5/well) were plated in 12-well plates. After confluence, the cells were treated with IP-Se-06 (1 μM) for 6 h. After treatment, the cells were washed once with HBSS and incubated with TMRE (1 μM) at 37°C for 20 min. Lastly, the cells were washed with HBSS and the fluorescence intensity was measured at excitation peak of 549 nm and emission of 575 nm.

[6] = tested on: A172 cells; assay: Cell cycle analysis (PI, flow cytometry); assay type: cell-based, human; details: 1 μM, 72 h, vs untreated
Experimental: The PI/RNAse solution from the Immunostep® kit (Salamanca, Spain) was used to determine the DNA content of cells of the different phases of cell cycle by flow cytometry using the protocol proposed by the manufacturer. A172 cells were plated on 6-well plates at a density of 2 × 10^5/well until confluence and synchronization with nocodazole (30 ng/mL) for 14 h. The cells were treated with IP-Se-06 (1 μM) for 72 h, carefully washed with PBS, and fixed in cold ethanol (70%) overnight at -20°C. Finally, cells were washed again, resuspended in PI/RNAse solution, and incubated for 15 min at room temperature. Cells were analyzed using a BD FACSCanto II (BD Biosciences) flow cytometer. Data were processed using Flowing Software 2.5.1.

[7] = tested on: cytochrome c; assay: Western blotting cytochrome c (cytosolic fraction), A172 cells; assay type: cell-based, human; details: 1 μM, vs control
Experimental: as §2

[8] = tested on: caspase-1; assay: Western blotting caspase-1, A172 cells; assay type: cell-based, human; details: 1 μM, 48 h, vs control
Experimental: as §2

[9] = tested on: Akt; assay: Western blotting Akt, A172 cells; assay type: cell-based, human; details: 1 μM, 48 h, vs control
Experimental: as §2

[10] = tested on: thioredoxin reductase (TrxR); assay: Thioredoxin reductase activity in A172 cells (DTNB reduction); assay type: cell-based, human; details: 1 μM, 6 h, vs control
Experimental: (§3) To determine thioredoxin reductase (TrxR) activity and levels of reduced glutathione (GSH), glioblastoma cells were plated (4 × 10^5/well) into 12-well plates. At confluence, the cells were exposed at low concentration to IP-Se-06 (1 μM) for 6 h. After treatment time, cells were washed twice with PBS and resuspended with PBS/Triton 1%, centrifuged at 5000 g for 5 min and the supernatants were used for the determinations. All results were normalized by the protein content using the Bradford method.
TrxR activity was determined in A172 cells according to the method previously described by Arnér and collaborators, measuring the NADPH-dependent DTNB reduction to TNB (5-thio-2-nitrobenzoic acid) promoted by TrxR activity. The content of TNB derived from free thiols was measured at 412 nm. The enzyme activity was expressed as μmol·min^−1·mg protein^−1.

[11] = tested on: NRF2; assay: Western blotting NRF2, A172 cells; assay type: cell-based, human; details: 1 μM, vs control
Experimental: as §2

[12] = tested on: HIF-1α; assay: Western blotting HIF-1α, A172 cells; assay type: cell-based, human; details: 1 μM, 48 h, vs control
Experimental: as §2

[13] = tested on: reduced glutathione (GSH); assay: Reduced glutathione level in A172 cells (o-phthalaldehyde); assay type: cell-based, human; details: 1 μM, 6 h, vs control
Experimental: as §3
GSH was determined according to Hissin and Hilf using the fluorescent probe o-phthalaldehyde, which binds to free -SH groups forming the GS-OPT complex. This complex can be determined by fluorescence excitation at 350 nm and emission at 420 nm. Determinations were expressed in μGSH/μg protein.

[14] = tested on: p53; assay: Western blotting p53, A172 cells; assay type: cell-based, human; details: 1 μM, vs control
Experimental: as §2

[15] = tested on: HIF-1α; assay: Immunocytochemistry staining for HIF-1α localization; assay type: cell-based, human; details: 1 μM, 48 h
Experimental: A172 cells were treated with IP-Se-06 (1 μM) for 48 h, fixed with paraformaldehyde (4%) for 15 min and washed three times with PBS. The cells were then treated with blocking solution (0.5% BSA in PBS containing 0.3% of triton X-100) for 1 h at room temperature and incubated with rabbit polyclonal primary antibody HIF-1α (Cat. sc-10790, dilution 1 : 500) overnight at 4°C. Following this, the cells were washed three times with PBS and incubated with secondary antibody polyclonal goat anti-rabbit IgG antibody (Cat. AP132P, dilution 1 : 1000) for 1 h. The cell nuclei were stained with DAPI (3 μg/mL). The cell images were acquired from ten randomly chosen fields for each condition using an Olympus IX83 fluorescent microscope.

[16] = tested on: ERK 1/2; assay: Western blotting ERK 1/2, A172 cells; assay type: cell-based, human; details: 1 μM, 48 h
Experimental: as §2

[17] = tested on: A172 cells; assay: Clonogenic assay; assay type: cell-based, human; details: 1 μM, 72 h
Experimental: To analyze the ability of the organoselenium compound to prevent cell proliferation and the progression of tumorigenesis, the methodology proposed by Franken and collaborators was used. In total, 500 cells per well were seeded in 6-well plates for 24 h. Before treatment with IP-Se-06, two groups were treated with the mitogen-activated protein kinase/ERK kinase inhibitor U0126 (Cell Signaling Technology, USA, Cat. #9903) at 10 μM for 1 h. A172 cells were exposed to IP-Se-06 (1 μM), while untreated cells were maintained as a control. After 72 h of incubation, the cells were washed with PBS, and fresh growth medium DMEM-F12 was added. At 7 days after treatment, colonies were fixed with 10% ethanol, stained with 0.5% crystal violet stain solution, manually counted, and photographed. Finally, cells were discolored with 1 mL of acetic acid 10% for 10 min, and the absorbance was measured at 590 nm in a multireader (Infinite M200 TECAN).

[18] = tested on: p-Akt; assay: Western blotting p-Akt, A172 cells; assay type: cell-based, human; details: 1 μM, 48 h, vs control
Experimental: as §2

[19] = tested on: p-p38; assay: Western blotting p-p38, A172 cells; assay type: cell-based, human; details: 1 μM, 48 h, vs control
Experimental: as §2

[20] = tested on: NLRP3; assay: Western blotting NLRP3, A172 cells; assay type: cell-based, human; details: 1 μM, 48 h, vs control
Experimental: as §2

[21] = tested on: mTOR; assay: Western blotting mTOR, A172 cells; assay type: cell-based, human; details: 1 μM, 48 h, vs control
Experimental: as §2

[22] = tested on: A172 cells; assay: Assessment of cell death (acridine orange plus propidium iodide); assay type: cell-based, human; details: 1 μM, 72 h, vs nontreated
Experimental: The cells were seeded (density of 2 × 10^5/well) into 6-well plates. After confluence, cells were treated with IP-Se-06 (1 μM) for 72 h. After this period, tumor cells were washed with PBS, trypsinized, centrifuged at 1500 g for 5 min, resuspended in PBS, and stained with a solution (6 μL, 1 : 1) of acridine orange (100 μg/mL) plus propidium iodide (100 μg/mL). This staining is used to analyze nuclear changes that characterize apoptotic and necrotic cells according to McGahon and collaborators. Cells (300/glass slide) from triplicates were observed under a fluorescence microscope (Olympus BX41) and categorized as viable, apoptotic, or necrotic.

[23] = tested on: Ehrlich ascitic carcinoma; set-up: method as in PMID 33125183; details: 1 mg/kg, Ehrlich ascitic carcinoma-bearing mice; cited from earlier work
[24] = tested on: p38 MAPK; assay: Western blotting p38, A172 cells; assay type: cell-based, human; details: 1 μM, 48 h, vs control
Experimental: as §2

[25] = tested on: Bcl-xL; assay: Western blotting Bcl-xL, A172 cells; assay type: cell-based, human; details: 1 μM, vs control
Experimental: as §2

Cc1ccn2c([Se]c3ccc(Cl)cc3)c(-c3ccccc3)nc2c1 [IP-Se-04]
IC50 [1]: 43.6 µM
Selectivity Index (SI) [1]: 7.0
IC50 [2]: 306 µM

Cc1ccn2c([Se]c3cccc4ccccc34)c(-c3ccccc3)nc2c1 [IP-Se-05]
IC50 [1]: 20.8 µM
Selectivity Index (SI) [1]: 9.9
IC50 [2]: 206 µM

Cc1ccn2c([Se]c3cccs3)c(-c3ccccc3)nc2c1 [IP-Se-07]
IC50 [1]: 27.9 µM
Selectivity Index (SI) [1]: 0.4
IC50 [2]: 10.7 µM

Cc1ccc([Se]c2c(-c3ccccc3)nc3cc(C)ccn23)cc1 [IP-Se-02]
IC50 [1]: 73.2 µM
Selectivity Index (SI) [1]: 1.9
IC50 [2]: 144 µM

c1ccc([Se]c2c(-c3ccccc3)nc3ncccn23)cc1 [IP-Se-09]
IC50 [1]: 21.8 µM
Selectivity Index (SI) [1]: 0.3
IC50 [2]: 6 µM

Cc1ccn2cc(-c3ccccc3)nc2c1 [IP-01]
IC50 [1]: 76.3 µM
Selectivity Index (SI) [1]: 2.0
IC50 [2]: 153 µM

Cc1ccn2c([Se]c3ccccc3)c(-c3ccccc3)nc2c1 [IP-Se-01]
IC50 [1]: 98.8 µM
Selectivity Index (SI) [1]: 0.7
IC50 [2]: 75.4 µM

COc1ccc(-c2nc3cc(C)ccn3c2[Se]c2ccccc2)cc1 [IP-Se-10]
IC50 [1]: 18.8 µM
Selectivity Index (SI) [1]: 1.6
IC50 [2]: 30 µM

COc1ccccc1[Se]c1c(-c2ccccc2)nc2cc(C)ccn12 [IP-Se-06, 3-((2-methoxyphenyl)selanyl)-7-methyl-2-phenylimidazol[1,2-a]pyridine]
nuclear morphology (DAPI) [3]: brightly stained and condensed nuclei
levels of γ-H2AX [4]: increased
ΔΨm, TMRE fluorescence intensity [5]: reduced
G2/M phase cell population [6]: decrease
S phase [6]: no significant effect
cell population in the G1 phase [6]: increased
cell proportion in sub-G1 peak [6]: increased
levels of cytochrome c [7]: increased
levels of caspase-1 [8]: decreased
levels of Akt [9]: significant reduction
TrxR intracellular activity [10]: significantly decreased
levels of NRF2 protein [11]: decreased
HIF-1α levels [12]: significantly decreased
levels of GSH [13]: significantly decreased
levels of p53 [14]: increased
approximate IC25 value ([1]; A172, concentration used in further experiments): ~1 µM
IC50 [1]: 1.8 µM
Selectivity Index (SI) [1]: 36.5
HIF-1α localization [15]: seemed not to be translocated to the nucleus
ERK 1/2 levels ([16]; combination with U0126 10 μM 1 h, vs nontreated and U0126 alone): synergistic inhibition
ERK 1/2 levels ([16]; vs control): important reduction
number of cells in the colonies (absorbance 590 nm) ([17]; concomitantly with U0126 10 μM 1 h, vs treatments alone): even lower
number of cells in the colonies (absorbance 590 nm) ([17]; vs control): decreased
rate of colony formation ([17]; vs nontreated): decreased
levels of p-Akt [18]: significant reduction
phosphorylation of p38 (p-p38) [19]: significantly decreased
levels of NLRP3 [20]: decreased
levels of mTOR [21]: significant reduction
cytotoxic activity on the mouse hippocampal cell line ([2]; in words): no significant cytotoxic activity
IC50 [2]: 65 µM
apoptosis (acridine orange plus propidium iodide) [22]: able to induce apoptosis
angiogenesis [23]: inhibited angiogenesis
tumor growth [23]: growth inhibition of tumor
levels of p38 [24]: significantly decreased
levels of Bcl-xL [25]: decreased

COc1ccc([Se]c2c(-c3ccccc3)nc3cc(C)ccn23)cc1 [IP-Se-03]
IC50 [1]: 27.6 µM
Selectivity Index (SI) [1]: 0.1
IC50 [2]: 3.9 µM

CCCC[Se]c1c(-c2ccccc2)nc2cc(C)ccn12 [IP-Se-08]
IC50 [1]: 20.9 µM
Selectivity Index (SI) [1]: 1.5
IC50 [2]: 31.2 µM
